Assay results as given in article PMC6587565 (Diabetes, Obesity & Metabolism, 2018).
Like-named read-outs stand apart in the source and are kept apart here.

Columns and labels:
[1] = format: in vivo, human
[2] = test system: plasma glucose (PG) in patients with type 1 diabetes mellitus; format: in vivo, human; details: for AUE0-30min / AUE0-240min (area under plasma glucose excursions above baseline) / CE30min (plasma glucose excursion at 30 minutes) / CEmax (maximum plasma glucose excursion) / tCEmax (time to maximum plasma glucose excursion) / tPG increase ≥ 20 mg/dL (time to increase in plasma glucose ≥[…]) / tPG ≥70 mg/dL (time to reach plasma glucose ≥[…]): T1DM patients; for AUE0-30min / AUE0-240min (area under plasma glucose excursions above baseline) / CE30min (plasma glucose excursion at 30 minutes) / CEmax (maximum plasma glucose excursion): mean (SD), SD; for tCEmax (time to maximum plasma glucose excursion) / tPG increase ≥ 20 mg/dL (time to increase in plasma glucose ≥[…]) / tPG ≥70 mg/dL (time to reach plasma glucose ≥[…]): median (range)
[3] = test system: patients with type 1 diabetes mellitus; assay: Safety: adverse events, hypoglycaemic episodes, local tolerability; format: in vivo, human
[4] = hypoglycaemia, single s.c. dose 0.03 mg, T1DM patients, mean (SD), N=14, SD
[5] = euglycaemia, single s.c. dose 0.6 mg, N=17
[6] = hypoglycaemia, single s.c. dose 0.03 mg, N=17
[7] = hypoglycaemia, single s.c. dose 0.08 mg, N=17
[8] = hypoglycaemia, single s.c. dose 0.2 mg, N=17
[9] = hypoglycaemia, single s.c. dose 0.6 mg, N=17

AUC0-inf ([1]; euglycaemia, single s.c. dose 0.6 mg, T1DM patients, mean (SD), N=17, SD): 3710 (585) pmol*h/L
Tmax ([1]; euglycaemia, single s.c. dose 0.6 mg, T1DM patients, median (range), N=17): 0.5 (0.25‐1) h
Tmax ([1]; human, plasma, sc, 0.03 mg): 30 min
CL/F ([1]; human, plasma, sc, 0.03 mg, SD): 863 mL/min
half-life ([1]; human, plasma, sc, 0.03 mg, SD): 22.9 min
Tmax ([1]; human, plasma, sc, 0.08 mg): 30 min
CL/F ([1]; human, plasma, sc, 0.08 mg, SD): 688 mL/min
half-life ([1]; human, plasma, sc, 0.08 mg, SD): 28.4 min
Tmax ([1]; human, plasma, sc, 0.2 mg): 30 min
half-life ([1]; human, plasma, sc, 0.2 mg, SD): 33.9 min
Tmax ([1]; human, plasma, sc, 0.6 mg): 30 min
AUC0-inf [1, 4]: 182 (45.9) pmol*h/L
CL/f (total body clearance) [1, 4]: 52.6 (16.7) L/h
AUC0-240min ([1]; hypoglycaemia, single s.c. dose 0.03 mg, T1DM patients, mean (SD), N=17, SD): 174 (43.1) pmol*h/L
Tmax ([1]; hypoglycaemia, single s.c. dose 0.03 mg, T1DM patients, median (range), N=17): 0.5 (0.25‐1) h
t1/2 (terminal elimination half-life) ([1]; hypoglycaemia, single s.c. dose 0.08 mg, T1DM patients, mean (SD), N=16, SD): 0.472 (0.154) h
Tmax ([1]; hypoglycaemia, single s.c. dose 0.08 mg, T1DM patients, median (range), N=17): 0.5 (0.25‐1) h
Structure (SMILES): CC(C)C[C@H](NC(=O)[C@H](Cc1c[nH]c2ccccc12)NC(=O)[C@H](CCCCN)NC(=O)[C@@H](NC(=O)[C@H](Cc1ccccc1)NC(=O)[C@H](CCC(=O)O)NC(=O)[C@H](CCC(=O)O)NC(=O)[C@H](C)NC(=O)[C@H](CCCNC(=N)N)NC(=O)[C@H](C)NC(=O)C(C)(C)NC(=O)[C@H](CC(=O)O)NC(=O)[C@H](CC(C)C)NC(=O)[C@H](Cc1ccc(O)cc1)NC(=O)[C@H](CCCCN)NC(=O)[C@H](CO)NC(=O)[C@H](Cc1ccc(O)cc1)NC(=O)[C@H](CC(=O)O)NC(=O)[C@H](CO)NC(=O)[C@@H](NC(=O)[C@H](Cc1ccccc1)NC(=O)[C@@H](NC(=O)CNC(=O)[C@H](CCC(N)=O)NC(=O)[C@H](CO)NC(=O)[C@@H](N)Cc1c[nH]cn1)[C@@H](C)O)[C@@H](C)O)C(C)C)C(=O)N[C@@H](CCC(=O)O)C(=O)N[C@@H](CO)C(=O)N[C@H](C(=O)O)[C@@H](C)O [Dasiglucagon, dasiglucagon]
Median time (range) to an increase in PG of at least […] (20 mg/dL) ([2]; 0.03 mg s.c., at both euglycaemia and hypoglycaemia): < 20 (18‐19.5) minutes
AUE0-30min [2, 5]: 18.3 (5.25) mg*h/dL
AUE0-240min (area under plasma glucose excursions above baseline) [2, 5]: 479 (159) mg*h/dL
CE30min (plasma glucose excursion at 30 minutes) [2, 5]: 79.8 (23.4) mg/dL
CEmax (maximum plasma glucose excursion) [2, 5]: 165 (46.1) mg/dL
tCEmax (time to maximum plasma glucose excursion) [2, 5]: 90.0 (70‐240) min
tPG increase ≥ 20 mg/dL (time to increase in plasma glucose ≥[…]) [2, 5]: 10.0 (8‐14) min
Patients achieving a PG level of at least […] within 30 minutes post-dose ([2]; hypoglycaemia, dose levels of 0.08 mg and above): 100%
Patients achieving a PG level of at least […] within 30 minutes post-dose ([2]; hypoglycaemia, lowest dose level (0.03 mg)): 70.6%
AUE0-30min [2, 6]: 4.60 (5.24) mg*h/dL
AUE0-240min (area under plasma glucose excursions above baseline) [2, 6]: 70.6 (100) mg*h/dL
CE30min (plasma glucose excursion at 30 minutes) [2, 6]: 23.7 (24.9) mg/dL
CEmax (maximum plasma glucose excursion) [2, 6]: 37.9 (38.9) mg/dL
tPG increase ≥ 20 mg/dL (time to increase in plasma glucose ≥[…]) ([2]; hypoglycaemia, single s.c. dose 0.03 mg, N=10): 19.5 (12‐42) min
tPG ≥70 mg/dL (time to reach plasma glucose ≥[…]) ([2]; hypoglycaemia, single s.c. dose 0.03 mg, N=13): 14.0 (5‐37) min
tCEmax (time to maximum plasma glucose excursion) [2, 6]: 50.0 (0‐90) min
AUE0-30min [2, 7]: 14.3 (10.1) mg*h/dL
AUE0-240min (area under plasma glucose excursions above baseline) [2, 7]: 249 (201) mg*h/dL
CE30min (plasma glucose excursion at 30 minutes) [2, 7]: 63.9 (38.6) mg/dL
CEmax (maximum plasma glucose excursion) [2, 7]: 106 (61.1) mg/dL
tCEmax (time to maximum plasma glucose excursion) [2, 7]: 70.0 (50‐90) min
tPG increase ≥ 20 mg/dL (time to increase in plasma glucose ≥[…]) [2, 7]: 14.0 (7‐48) min
tPG ≥70 mg/dL (time to reach plasma glucose ≥[…]) [2, 7]: 10.0 (2‐27) min
AUE0-30min [2, 8]: 19.0 (6.43) mg*h/dL
AUE0-240min (area under plasma glucose excursions above baseline) [2, 8]: 406 (175) mg*h/dL
CE30min (plasma glucose excursion at 30 minutes) [2, 8]: 86.8 (27.2) mg/dL
CEmax (maximum plasma glucose excursion) [2, 8]: 154 (48.4) mg/dL
tCEmax (time to maximum plasma glucose excursion) [2, 8]: 90.0 (70‐150) min
tPG increase ≥ 20 mg/dL (time to increase in plasma glucose ≥[…]) [2, 8]: 11.0 (8‐20) min
tPG ≥70 mg/dL (time to reach plasma glucose ≥[…]) [2, 8]: 6.0 (5‐11) min
AUE0-30min [2, 9]: 21.9 (5.68) mg*h/dL
AUE0-240min (area under plasma glucose excursions above baseline) [2, 9]: 535 (187) mg*h/dL
CE30min (plasma glucose excursion at 30 minutes) [2, 9]: 94.2 (21.9) mg/dL
CEmax (maximum plasma glucose excursion) [2, 9]: 192 (54.1) mg/dL
tCEmax (time to maximum plasma glucose excursion) [2, 9]: 90.0 (70‐150) min
tPG increase ≥ 20 mg/dL (time to increase in plasma glucose ≥[…]) [2, 9]: 9.00 (8‐14) min
tPG ≥70 mg/dL (time to reach plasma glucose ≥[…]) [2, 9]: 6.0 (2‐8) min
Total hypoglycaemic events ([3]; 17 completers, range of small doses (0.03-0.2 mg)): 18
Overall safety and tolerability ([3]; all doses (0.03-0.6 mg s.c.)): safe and well tolerated
